Reference: ChEMBL document CHEMBL1151084, “Synthesis and biological properties of quaternized N-methylation analogs of D-Arg-2-dermorphin tetrapeptide” (Bioorg Med Chem Lett, 1994)
pIC50, pKi: −log10 of the molar value. Where a SMILES comes first, the peptide text is derived from it.

Experiments:
Mu-type opioid receptor = Mu-type opioid receptor (Rattus norvegicus, UniProt P33535); test: Binding affinity against mu-opioid receptor by using [3H]DAGO as radioligand in rat brain; format: tissue-based
Chain of Mu-type opioid receptor (P33535 whole entry): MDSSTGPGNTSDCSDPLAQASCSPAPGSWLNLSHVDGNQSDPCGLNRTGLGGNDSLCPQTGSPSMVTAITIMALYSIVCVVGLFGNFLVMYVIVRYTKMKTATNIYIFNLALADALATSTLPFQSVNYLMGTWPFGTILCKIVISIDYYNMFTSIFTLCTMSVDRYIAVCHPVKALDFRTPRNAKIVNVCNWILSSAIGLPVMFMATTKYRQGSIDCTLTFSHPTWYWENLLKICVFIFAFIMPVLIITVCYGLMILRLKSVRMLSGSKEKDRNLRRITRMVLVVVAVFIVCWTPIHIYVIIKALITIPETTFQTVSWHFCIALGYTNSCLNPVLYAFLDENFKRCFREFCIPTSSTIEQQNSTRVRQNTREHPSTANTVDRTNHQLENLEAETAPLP

[1] = target: Delta-type opioid receptor (Rattus norvegicus, UniProt P33533); test: Binding affinity against delta-opioid receptor by using [3H]DADLE as radioligand in rat brain; format: tissue-based
Chain of Delta-type opioid receptor (P33533 whole entry): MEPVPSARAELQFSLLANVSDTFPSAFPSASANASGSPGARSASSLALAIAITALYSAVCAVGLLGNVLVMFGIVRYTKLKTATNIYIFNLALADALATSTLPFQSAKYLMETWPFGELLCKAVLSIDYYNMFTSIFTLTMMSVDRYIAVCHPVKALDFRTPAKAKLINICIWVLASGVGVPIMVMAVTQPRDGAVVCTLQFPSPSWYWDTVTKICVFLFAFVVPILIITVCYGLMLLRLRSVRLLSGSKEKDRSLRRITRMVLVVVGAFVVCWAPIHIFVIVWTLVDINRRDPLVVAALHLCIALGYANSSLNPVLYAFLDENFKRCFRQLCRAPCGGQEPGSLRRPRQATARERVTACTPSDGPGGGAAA

Cavia porcellus = species on record: Cavia porcellus; test: In vitro bioactivity on electrically induced smooth muscle contraction of guinea pig ileum by GPI assay; format: functional
Mus musculus [2] = test: In vivo antinociceptive effect in mice by PBQ writhing test upon subcutaneous administration; Range is (0.88-1.56); format: functional; conditions: sc
Mus musculus [3] = test: In vivo antinociceptive effect in mice by PBQ writhing test upon subcutaneous administration; Range is (1.64-3.24); format: functional; conditions: sc
Mus musculus [4] = test: In vivo antinociceptive effect in mice by PBQ writhing test upon subcutaneous administration: Range is (0.39-0.59); format: functional; conditions: sc
Mus musculus [5] = test: In vivo antinociceptive effect in mice by PBQ writhing test upon subcutaneous administration; Range is (0.52-0.741); format: functional; conditions: sc

Compound	pKi (Mu-type opioid receptor)	pKi [1]	pIC50 (Cavia porcellus)	ED50 (Mus musculus [2]) [mg/kg]	ED50 (Mus musculus [3]) [mg/kg]	ED50 (Mus musculus [4]) [mg/kg]	ED50 (Mus musculus [5]) [mg/kg]
C[N+](C)(C)CCCC[C@H](NC(=O)[C@H](Cc1ccccc1)NC(=O)[C@@H](CCCNC(=N)N)NC(=O)[C@@H](N)Cc1ccc(O)cc1)C(N)=O	8.95	5.45	7.04	1.18	–	–	–
C[N+](C)(C)CC[C@H](NC(=O)[C@H](Cc1ccccc1)NC(=O)[C@H](CCCNC(=N)N)NC(=O)[C@H](Cc1ccc(O)cc1)[N+](C)(C)C)C(N)=O	5.89	< 4.00	5.51	–	–	–	–
C[N+](C)(C)CC[C@H](NC(=O)[C@H](Cc1ccccc1)NC(=O)[C@H](CCCN=C(N)N)NC(=O)[C@@H](N)Cc1ccc(O)cc1)C(N)=O	8.12	5.23	6.90	–	–	–	–
C[N+](C)(C)CCC[C@H](NC(=O)[C@H](Cc1ccccc1)NC(=O)[C@@H](CCCN=C(N)N)NC(=O)[C@@H](N)Cc1ccc(O)cc1)C(N)=O	8.63	6.35	6.89	–	2.3	–	–
C[N+](C)(C)[C@@H](Cc1ccc(O)cc1)C(=O)N[C@H](CCCN=C(N)N)C(=O)N[C@@H](Cc1ccccc1)C(=O)N[C@@H](CCCN)C(N)=O	5.72	< 4.00	< 4.00	–	–	–	–
NCCCC[C@H](NC(=O)[C@H](Cc1ccccc1)NC(=O)[C@@H](CCCN=C(N)N)NC(=O)[C@@H](N)Cc1ccc(O)cc1)C(N)=O	9.42	5.63	7.30	–	–	0.47	–
C[N+](C)(C)[C@@H](Cc1ccc(O)cc1)C(=O)N[C@H](CCCN=C(N)N)C(=O)N[C@@H](Cc1ccccc1)C(=O)N[C@@H](CCCCN)C(N)=O	6.68	< 4.00	5.61	–	–	–	–
NC(=O)[C@H](CCNC(=O)[C@H](Cc1ccccc1)NC(=O)[C@H](CCCN=C(N)N)NC(=O)[C@@H](N)Cc1ccc(O)cc1)NC(=O)[C@H](Cc1ccccc1)NC(=O)[C@H](CCCN=C(N)N)NC(=O)[C@@H](N)Cc1ccc(O)cc1 (HELM PEPTIDE1{Y.R.F.[Dab].[am]}|PEPTIDE2{Y.R.F}$PEPTIDE1,PEPTIDE2,4:R3-3:R2$$$V2.0)	9.29	6.30	7.85	–	–	–	0.61
